Measured values reported in patent publication US20100081622A1, “Reduction of parathyroid hormone levels” (Sanos Bioscience A/S, priority 2008, published 2010).

What was measured:
[1] = test system: plasma PTH; test: Plasma PTH after bedtime administration of GLP-2 in non-fasting subjects (Example 2); format: in vivo, human; conditions: postmenopausal women, 2x800 μg 3 hrs apart versus 1600 μg once, at bedtime, FIG. 2
Procedure: The study was a randomized, block-stratified, placebo-controlled, parallel study. A total of 44 postmenopausal women were included and randomly assigned to treatment with either 1600 μg GLP-2 (n=14), 800 μg GLP-2 twice (administered 3 hrs apart) (n=15), or placebo, i.e. saline (n=15). All subjects received 2 injections one at 10 pm […] and one 3 hrs later at 1 am […]. Thus, the placebo group was given two injections of saline and the 2×800 μg group two injections of 800 μg GLP-2, while the 1600 μg group received one injection of 1600 μg GLP-2 and one injection of saline.
On the day of treatment with the study medication, blood samples for efficacy measurement was taken from 10 pm every hour until 8 am.

[2] = test system: plasma PTH; test: Plasma PTH at Day 1 and Day 120 after daily bedtime administration for 120 days (Example 3); format: in vivo, human; conditions: postmenopausal women with osteopenia; daily 0.4, 1.6 or 3.2 mg subcutaneous at bedtime for 120 days plus calcium and vitamin D
Procedure: The study was a randomised, double-blinded, placebo-controlled, parallel group and dose-ranging study in 160 postmenopausal women with osteopenia (BMD T-score, −2.5≦T≦−1.0) at one or more of the regions: the lumbar spine, femoral neck or total hip. Forty (40) subjects were randomised to each treatment group to receive treatment with daily doses of 0.4 mg, 1.6 mg or 3.2 mg of GLP-2 plus calcium (800-1000 mg/day) and vitamin D (400-800 IU/day), or placebo plus calcium (800-1000 mg/day) and vitamin D (400-800 IU/day) for 120 days.
The treatment involved a daily injection of the study medication at bedtime (10:00 pm±1 hour) for 120 consecutive days.
Pharmacokinetic/dynamic sampling during treatment Day 1 and 120 included blood and urine samples collected at the time points: −1 hour, 0 min, 1 hour, 2 hours, 3 hours, 6 hours and 10 hours in connection with the injection of the study medication for the assessment of efficacy parameters and pharmacokinetic/dynamic parameters of subcutaneous injections of GLP-2.

[3] = test system: plasma PTH; test: Plasma PTH after morning administration of GLP-2 in fasting subjects (Example 1); format: in vivo, human; conditions: postmenopausal women, one dose of 100, 200, 400 or 800 μg at 9 am, followed 8 hrs, FIG. 1
Procedure: The study was a randomized, block-stratified, placebo-controlled, parallel study. A total of 60 subjects of postmenopausal women were included and allocated to one of five groups each including 12 subjects receiving one dose of 100 μg, 200 μg, 400 μg, 800 μg GLP-2, or placebo.
On the day of treatment with the study medication, the subjects met at the study site after an overnight fast. The study medication was administered at 9 am (0 hrs) and the subjects remained fasting for another 8 hrs, thus at 5 pm the fasting period ended.

[4] = test system: serum PTH; conditions: tHPT patients, after 10 weeks of treatment; cited from earlier work
[5] = rats; cited from earlier work

His-Ala-Asp-Gly-Ser-Phe-Ser-Asp-Glu-Met-Asn-Thr-Ile-Leu-Asp-Asn-Leu-Ala-Ala-Arg-Asp-Phe-Ile-Asn-Trp-Leu-Ile-Gln-Thr-Lys-Ile-Thr-Asp-Arg (HADGSFSDEMNTILDNLAARDFINWLIQTKITDR; printed: His-Ala-Asp-Gly-Ser-Phe-Ser-Asp-Glu-Met-Asn-Thr-Ile-Leu-Asp-Asn-Leu-Ala-Ala-Arg-Asp-Phe-Ile-Asn-Trp-Leu-Ile-Gln-Thr-Lys-Ile-Thr-Asp-Arg) [GLP-2]
plasma PTH, area difference between treatment and placebo curves [1]: two injections of 800 μg produced a greater area difference between the treatment and placebo curves
effect on plasma PTH over the treatment period, Day 1 versus Day 120 [2]: remains consistent
plasma PTH level after GLP-2 [3]: dose dependent rapid decrease in PTH which gradually abates over an 8 hour period

C[C@@H](NCCCc1cccc(C(F)(F)F)c1)c1cccc2ccccc12 [Cinacalcet]
reduction in serum PTH [4]: 21.8%

C=C1/C(=C\C=C2/CCC[C@]3(C)[C@@H]([C@H](C)CCCC(C)(C)O)CC[C@@H]23)C[C@@H](O)C[C@@H]1O [calcitriol]
aortic calcification [5]: moderate to marked aortic calcification
